Source: patent US9796674B2, “Benzyl urea derivatives for activating TGF-beta signaling” (THE BOARD OF TRUSTEES OF THE LELAND STANFORD JUNIOR …, priority 2013, dated 2017)
In brackets after ≈: the same amount, converted by molar mass.

How the values were obtained:
[1] = Cytotoxicity in primary rat hepatocytes; format: cell-based; conditions: rat
Protocol: In Vitro Cytotoxicity: The cytotoxicity of SRI-011381 was determined in primary rat hepatocytes and in VERO cells.
Rat hepatocytes were isolated by collagenase perfusion and allowed to form a monolayer overnight. The test compounds were added to the cells in 5 concentrations up to 250 μM. Cells were incubated with the test article for 20 h and then toxicity determined by the MTT cytotoxicity screen. Toxicity was evaluated against the vehicle control (DMSO) and a positive control, amitriptylin, was included with each experiment.

[2] = Dose escalation and 14-day MTD study in female FVB mice; format: in vivo; conditions: female, FVB, mouse, in vivo; daily oral dose for 14 days
Protocol: In Vivo Range Finding Toxicity Studies in Mice and Rats: Dose escalation and 14-day MTD study of SRI-011381 and SRI-011382 in female FVB mice: The objectives of this study were to determine the maximum tolerated dose (MTD) and a no observable adverse effect level (NOAEL) in female FVB mice following a daily oral dose administration for 14 consecutive days. An initial dose escalation was performed with intraperitoneal (ip), oral (po), and intravenous (iv) dose routes for a single-dose MTD of SRI-011381 and SRI-011382.
Subsequently, three dose levels (10, 30, and 75 mg/kg) and a vehicle control group were used in the 14-day oral dose administration to determine the MTD and NOAEL based on changes in bodyweight, clinical observations, serum chemistry, hematology and gross organ physiology in 5 female mice per treatment group.
The objectives of this study were to determine maximum tolerated dose (MTD) and a no observable adverse effect level (NOAEL) in female FVB mice following a daily oral dose administration for 14 consecutive days. After a dose escalation single dose study with doses up to 400 mg/kg, three dose levels were selected for the repeat dose study, 10, 30 and 75 mg/kg, administered […]. The MTD is the maximum dose administered that results in less than 10% body weight loss compared to controls and no other dose limiting adverse effects (e.g. clinical pathology).

Solubility = format: physicochemical; conditions: aqueous buffer; in PBS
[3] = PAMPA-BBB permeability assay; format: in vitro ADME
Protocol: Permeability Assays: PAMPA screens, both for absorption from the gut and through blood brain barrier, were used as a first tier screen for this program. SRI-011381 was evaluated in the double sink assay format and the sum of the permeability coefficients at three pH values (7.4, 6.2, 5.0) was calculated (Pe) to be 781×10^−6 cm/s, which is consistent with an orally available compound.
Permeability PAMPA: The PAMPA assay was used to predict oral bioavailability of compounds. The PAMPA determines the permeability of compounds across a biological membrane using a synthetic lipid membrane and detection by UV absorbance. […] The PAMPA-BBB assay was performed, to predict permeability to the blood brain barrier, as an aqueous assay and as a co-solvent assay. In this assay the composition of the lipid membrane included brain-derived lipids, mimicking the BBB membrane.

[4] = system: APP751Lon,Swe transgenic mice; experiment: Efficacy in APP751Lon,Swe transgenic mouse model; format: in vivo; conditions: for Y-maze working memory (spontaneous alternations): po 3 times per week
Excerpt: Transgenic mouse models over-producing human APP-containing mutations found in families with autosomal dominant AD reproduce important aspects of AD, including amyloid plaques, neurodegeneration, and cognitive deficits. Transgenic mice which overexpress human APP751^V717I, K670M/N671L (aka London and Swedish mutations) in neurons under control of a Thy1.2 promoter, specifically Line 41 generated according to Rockenstein et al., (2001) J. Neurosci. Res. 66: 573-582, incorporated herein by reference in its entirety, develop amyloid pathology, neurodegeneration, and cognitive deficits (Rockenstein et al. 2001). These mice (short APP751^Lon,Swe) have been studied by multiple laboratories (Pickford et al. (2008) J. Clin. Invest. doi:10.1172/JCI33585; Knowles et al., (2009) J. Neuroscience 29: 10627-10637) and have been used as a model for drug development.
Compound SRI-011381 was dissolved in a vehicle containing 15% solutol and 85% water. The formulated compound was administered orally to APP751^Lon,Swe transgenic mice or littermate non-transgenic controls (male, 6.5-7.5 months of age) at 0 (vehicle only), 10, 30 mg/kg of body weight 3 times per week for 10 weeks (n=7-11 mice per group). Behavioral studies started at this point. Oral gavage of the compound continued throughout the course of the studies until the mice were sacrificed 17 weeks after treatment had been initiated (thus mice were treated for roughly 4 months total before they were sacrificed). Plasma samples were collected for future proteomic assays. One hemibrain was fixed in 4% PFA for 48 h and kept in 2% PFA at 4° C. for neuropathologcial analysis. The other hemibrain was snap frozen. Both the serum and frozen brain samples were placed into −80° C. freezer for long-term storage.
To determine the effects of SRI-011381 (381) treatment on AD-like pathology brains from APP751^Lon,Swe transgenic and non-transgenic littermate control mice treated with vehicle, 10 mg/kg, or 30 mg/kg of compound were sectioned into 40 μm free-floating sections with a vibratome. Brain sections were stained with antibodies against Aβ, phosphorylated tau (PHF1), calbindin, microtubule associated protein2 (MAP2), synaptophysin (SY38), NeuN, and Iba1. In addition, hippocampus and neocortex from one hemibrain from APP751^Lon,Swe mice were homogenized with guanidine, and levels of Aβ1-42 and Aƒβ1-x were measured by ELISA.

O=C(NC1CCCCC1)N(Cc1ccccc1)CC1CCNCC1 [SRI-011381, 1-Benzyl-3-cyclohexyl-1-(piperidin-4-ylmethyl)urea]
CC50 at 20 h [1]: > 100 µM | NOAEL at 14 days [2]: < 30 mg/kg | solubility (Solubility): 5.2 mg/mL (≈ 15.8 mM) | PAMPA-BBB Pe [3]: 4.2±2.2 ×10^−6 cm/s | Papp ([3]; PAMPA, read-out: PAMPA-BBB Pe): 42 ± 22 nm/s | fear conditioning: context memory ([4]; 10 mg/kg): significantly improved | rescue of working memory deficit (Y-maze) ([4]; 10 mg/kg po 3 times per week, 10 weeks): > 50% | fear conditioning: cued memory to the tone ([4]; 10 or 30 mg/kg): no significant differences | fear conditioning: learning of the tone response (freezing, tone 4) ([4]; 10 or 30 mg/kg): completely absent | Aβ immunoreactivity in hippocampus and cortex ([4]; 10 or 30 mg/kg, about 4 months): trend was seen towards lower levels | Aβ levels by ELISA in hippocampus and cortex ([4]; 10 or 30 mg/kg, about 4 months): non-significant trends towards lower Aβ levels | increase in expression of PHF1 ([4]; 10 or 30 mg/kg, about 4 months): almost completely absent | level of Iba1 ([4]; 10 or 30 mg/kg, about 4 months): did not significantly change | levels of calbindin, synaptophysin, MAP-2 and NeuN ([4]; 10 or 30 mg/kg, about 4 months): significantly higher levels of these neuronal markers | fear conditioning: cued memory to the tone ([4]; 10 or 30 mg/kg, listed as 381): No freezing difference | fear conditioning: learning of the tone response (freezing, tone 4) ([4]; 10 or 30 mg/kg, listed as 381): significant increase in freezing | rescue of contextual memory deficit ([4]; oral): greater than 50% | Y-maze working memory (spontaneous alternations) ([4]; 10 weeks): not significantly impaired compared with littermate non-transgenic controls | Y-maze working memory (spontaneous alternations) ([4]; 10 weeks, listed as 381): improved | neurodegeneration ([4]; two dose levels, 4-month-period of treatment): marked amelioration of neurodegeneration
